Assay results reported in ChEMBL document CHEMBL1201862, “PubChem BioAssay data set” (2004).
Each block holds one compound with its values, some of them ahead of it. The source made the active and inactive calls.

Tests used:
[1] = molecular target: E3 ubiquitin-protein ligase Mdm2 (Homo sapiens, UniProt Q00987); assay: enhancers of MDM2-luciferase reporter signal, concentration-effect titration, project on inhibitors of MDM2 ubiquitin ligase, cellular assay, luminescent readout, 384-well plate format (AID 1394); assay type: functional;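 also: MDM2 E3 inhibitors raise luminescence so EC50 is for signal enhancement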
[2] = molecular target: Mitogen-activated protein kinase 10 (Homo sapiens, UniProt P53779); assay: Dose response biochemical screening assay for inhibitors of c-Jun N-Terminal Kinase 3 (JNK3). [Related pubchem assays: 746 ]
[3] = molecular target: T1, Alkaline phosphatase, tissue-nonspecific isozyme (Homo sapiens, UniProt P05186); assay: human TNAP enzyme inhibitors, SAR follow-up, biochemical, luminescent, dose response (AID 1056)
T1 sequence (P05186 whole entry): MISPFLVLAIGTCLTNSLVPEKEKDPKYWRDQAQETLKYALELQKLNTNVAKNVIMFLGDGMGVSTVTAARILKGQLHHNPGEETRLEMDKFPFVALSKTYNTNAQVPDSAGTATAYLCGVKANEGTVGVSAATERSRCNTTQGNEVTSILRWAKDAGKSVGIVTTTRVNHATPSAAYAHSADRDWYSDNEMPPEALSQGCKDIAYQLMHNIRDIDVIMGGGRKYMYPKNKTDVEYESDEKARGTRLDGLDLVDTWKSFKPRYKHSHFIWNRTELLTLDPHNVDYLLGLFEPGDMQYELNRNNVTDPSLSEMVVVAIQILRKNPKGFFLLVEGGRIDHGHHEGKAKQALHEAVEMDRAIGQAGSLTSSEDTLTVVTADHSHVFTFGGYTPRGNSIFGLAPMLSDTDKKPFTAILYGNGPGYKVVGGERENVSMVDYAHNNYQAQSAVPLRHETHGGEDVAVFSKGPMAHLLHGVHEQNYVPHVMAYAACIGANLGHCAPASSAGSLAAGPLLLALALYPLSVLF

[4] = molecular target: Glyceraldehyde-3-phosphate dehydrogenase (Homo sapiens, UniProt P04406)
BJ [5] = assay: cytotoxicity toward BJ-TERT fibroblasts, dose response, cell-based, RAS-independent, luminescence (AID 1933); assay type: functional; conditions: Homo sapiens
Transthyretin = Transthyretin (Homo sapiens, UniProt P02766); assay: Luminescence-based cell-based high throughput dose response assay to identify activators of Transthyretin (TTR) transcription.; assay type: functional
BJ [6] = assay: cytotoxicity toward Ras-transformed BJeLR fibroblasts, dose response, cell-based, alamar blue fluorescence, cherrypicked samples (AID 2631); assay type: functional; conditions: Homo sapiens;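 also: confirmatory dose-response assay in RAS-dependent BJ fibroblasts engineered with TERT, LT and ST, with cytotoxicity read by fluorescence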
BJ [7] = assay: cytotoxicity toward BJ-TERT-LT-ST fibroblasts, dose response, cell-based, RAS-independent, luminescence (AID 1935); assay type: functional; conditions: Homo sapiens;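 also: BJ fibroblasts immortalized with TERT plus LT and ST oncogenes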
[8] = cytotoxicity toward DRD oncogenic fibroblasts, dose response, cell-based, non-viral oncogenic, luminescence (AID 1934); assay type: functional; conditions: Homo sapiens
[9] = molecular target: T2, Short transient receptor potential channel 4 (Mus musculus, UniProt Q9QUQ5); assay: mouse TRPC4 channel inhibitors, dose response, cell-based, HEK293 TRPC4/mu-opioid, Fluo-4 calcium (AID 434942); assay type: functional;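 also: potency of inhibitors blocking the TRPC4 calcium response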
T2 sequence (Q9QUQ5 whole entry): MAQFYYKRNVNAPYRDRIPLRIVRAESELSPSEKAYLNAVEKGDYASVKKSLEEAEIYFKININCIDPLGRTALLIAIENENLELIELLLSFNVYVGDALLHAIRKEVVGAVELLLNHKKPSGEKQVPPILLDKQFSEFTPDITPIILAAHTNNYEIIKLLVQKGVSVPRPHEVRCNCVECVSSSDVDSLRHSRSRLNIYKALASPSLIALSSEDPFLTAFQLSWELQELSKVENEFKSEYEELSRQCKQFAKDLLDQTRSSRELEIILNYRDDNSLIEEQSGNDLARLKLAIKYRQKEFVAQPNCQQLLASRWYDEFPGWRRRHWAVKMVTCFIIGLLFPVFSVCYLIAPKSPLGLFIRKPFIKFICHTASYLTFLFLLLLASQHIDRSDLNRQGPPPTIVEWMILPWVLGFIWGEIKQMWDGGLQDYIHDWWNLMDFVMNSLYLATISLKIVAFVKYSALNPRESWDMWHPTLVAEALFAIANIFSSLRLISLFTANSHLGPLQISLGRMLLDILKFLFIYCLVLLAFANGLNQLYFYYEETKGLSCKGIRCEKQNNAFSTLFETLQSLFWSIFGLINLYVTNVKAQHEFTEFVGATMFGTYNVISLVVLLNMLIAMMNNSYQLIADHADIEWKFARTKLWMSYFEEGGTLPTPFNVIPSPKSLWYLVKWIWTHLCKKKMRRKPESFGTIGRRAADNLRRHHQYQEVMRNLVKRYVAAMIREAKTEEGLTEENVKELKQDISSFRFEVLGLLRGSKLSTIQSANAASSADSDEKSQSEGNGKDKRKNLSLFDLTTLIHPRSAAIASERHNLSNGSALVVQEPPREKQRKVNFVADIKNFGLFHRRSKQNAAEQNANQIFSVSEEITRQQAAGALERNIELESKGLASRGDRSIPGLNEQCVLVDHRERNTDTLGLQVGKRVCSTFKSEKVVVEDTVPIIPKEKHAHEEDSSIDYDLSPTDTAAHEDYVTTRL

BJ [10] = assay: cells; assay type: functional, cell-based; conditions: Homo sapiens
Ephrin type-A receptor 4 = Ephrin type-A receptor 4 (Mus musculus, UniProt Q03137); assay: inhibitors of EphA4 binding to KYL peptide, primary screen, biochemical, colorimetric, mouse EphA4 (AID 689); assay type: functional
Cytochrome P450 2C9 = Cytochrome P450 2C9 (Homo sapiens, UniProt P11712)
Cytochrome P450 2C9, sequence (P11712 whole entry): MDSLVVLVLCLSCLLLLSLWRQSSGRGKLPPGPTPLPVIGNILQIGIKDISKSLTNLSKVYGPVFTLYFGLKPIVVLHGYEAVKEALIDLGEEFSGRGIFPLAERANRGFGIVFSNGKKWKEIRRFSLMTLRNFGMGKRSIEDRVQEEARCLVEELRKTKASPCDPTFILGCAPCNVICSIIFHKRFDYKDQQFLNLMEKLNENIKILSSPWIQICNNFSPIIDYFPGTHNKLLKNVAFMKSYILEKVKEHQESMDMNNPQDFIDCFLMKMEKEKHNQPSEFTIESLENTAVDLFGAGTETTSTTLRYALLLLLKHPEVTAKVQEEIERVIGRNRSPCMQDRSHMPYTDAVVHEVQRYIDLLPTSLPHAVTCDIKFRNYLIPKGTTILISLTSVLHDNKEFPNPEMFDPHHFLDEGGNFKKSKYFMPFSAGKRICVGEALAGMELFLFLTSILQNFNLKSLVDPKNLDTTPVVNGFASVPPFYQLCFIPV

E3 ubiquitin-protein ligase Mdm2, sequence (Q00987 whole entry): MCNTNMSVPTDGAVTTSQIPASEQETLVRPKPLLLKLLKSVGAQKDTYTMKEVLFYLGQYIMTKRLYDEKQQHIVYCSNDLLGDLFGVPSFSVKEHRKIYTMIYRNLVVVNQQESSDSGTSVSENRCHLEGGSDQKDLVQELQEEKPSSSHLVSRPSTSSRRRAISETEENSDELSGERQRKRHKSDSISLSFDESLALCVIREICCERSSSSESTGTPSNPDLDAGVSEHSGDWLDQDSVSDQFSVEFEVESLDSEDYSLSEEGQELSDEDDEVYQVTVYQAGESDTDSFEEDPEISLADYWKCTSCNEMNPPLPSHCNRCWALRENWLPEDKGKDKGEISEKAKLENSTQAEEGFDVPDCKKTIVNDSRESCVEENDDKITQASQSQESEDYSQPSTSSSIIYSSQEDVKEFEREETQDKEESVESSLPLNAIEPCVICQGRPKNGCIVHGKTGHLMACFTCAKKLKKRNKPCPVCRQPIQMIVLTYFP
Mitogen-activated protein kinase 10, sequence (P53779 whole entry): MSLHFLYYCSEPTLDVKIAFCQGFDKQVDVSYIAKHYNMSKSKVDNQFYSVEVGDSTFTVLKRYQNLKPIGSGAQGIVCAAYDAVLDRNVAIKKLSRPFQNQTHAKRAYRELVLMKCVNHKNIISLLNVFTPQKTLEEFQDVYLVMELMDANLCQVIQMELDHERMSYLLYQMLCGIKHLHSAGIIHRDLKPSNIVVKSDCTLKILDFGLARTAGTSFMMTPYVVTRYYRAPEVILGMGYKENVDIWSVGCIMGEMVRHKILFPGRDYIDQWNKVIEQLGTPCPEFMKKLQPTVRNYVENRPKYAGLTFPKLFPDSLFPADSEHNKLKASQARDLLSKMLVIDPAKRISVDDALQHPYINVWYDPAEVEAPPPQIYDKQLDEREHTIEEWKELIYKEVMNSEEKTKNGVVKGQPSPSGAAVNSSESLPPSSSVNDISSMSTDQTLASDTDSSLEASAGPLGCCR
Ephrin type-A receptor 4, sequence (Q03137 whole entry): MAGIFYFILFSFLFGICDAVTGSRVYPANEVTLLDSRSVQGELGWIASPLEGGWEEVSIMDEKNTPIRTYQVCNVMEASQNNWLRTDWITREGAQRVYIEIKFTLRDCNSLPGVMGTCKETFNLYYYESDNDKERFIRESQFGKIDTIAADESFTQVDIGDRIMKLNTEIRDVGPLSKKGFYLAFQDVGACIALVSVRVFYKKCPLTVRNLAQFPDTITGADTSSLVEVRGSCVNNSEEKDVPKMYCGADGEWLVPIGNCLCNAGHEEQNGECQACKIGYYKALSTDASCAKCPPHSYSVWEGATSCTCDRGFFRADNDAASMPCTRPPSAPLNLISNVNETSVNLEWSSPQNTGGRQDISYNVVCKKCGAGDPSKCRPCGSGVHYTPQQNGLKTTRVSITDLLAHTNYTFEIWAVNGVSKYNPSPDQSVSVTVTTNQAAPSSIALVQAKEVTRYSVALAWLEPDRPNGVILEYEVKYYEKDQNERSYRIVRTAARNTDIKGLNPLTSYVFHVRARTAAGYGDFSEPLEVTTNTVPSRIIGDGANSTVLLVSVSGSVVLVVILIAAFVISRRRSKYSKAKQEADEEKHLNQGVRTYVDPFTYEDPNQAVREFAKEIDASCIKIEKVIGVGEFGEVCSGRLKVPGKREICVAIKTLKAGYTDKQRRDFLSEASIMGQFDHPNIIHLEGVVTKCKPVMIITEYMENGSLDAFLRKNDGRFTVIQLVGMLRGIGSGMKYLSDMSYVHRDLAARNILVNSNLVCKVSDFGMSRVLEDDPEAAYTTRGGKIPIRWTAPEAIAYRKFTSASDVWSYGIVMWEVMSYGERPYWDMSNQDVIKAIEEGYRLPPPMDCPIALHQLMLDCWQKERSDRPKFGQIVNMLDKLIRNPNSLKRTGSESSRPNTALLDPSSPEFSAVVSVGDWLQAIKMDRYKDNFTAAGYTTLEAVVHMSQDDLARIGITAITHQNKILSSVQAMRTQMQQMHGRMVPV
Glyceraldehyde-3-phosphate dehydrogenase, sequence (P04406 whole entry): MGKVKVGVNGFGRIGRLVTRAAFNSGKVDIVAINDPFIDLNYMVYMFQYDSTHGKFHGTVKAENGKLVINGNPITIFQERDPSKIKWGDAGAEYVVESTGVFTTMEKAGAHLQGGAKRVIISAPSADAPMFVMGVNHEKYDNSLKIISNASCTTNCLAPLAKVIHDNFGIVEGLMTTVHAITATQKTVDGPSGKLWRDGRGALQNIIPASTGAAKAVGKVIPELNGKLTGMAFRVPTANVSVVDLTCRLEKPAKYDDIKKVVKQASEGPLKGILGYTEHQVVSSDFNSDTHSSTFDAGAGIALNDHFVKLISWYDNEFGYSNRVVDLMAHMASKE

EC50 [1]: 8.84 µM (not active)
SMILES: O=C(Nc1ccc(Cl)cc1)c1ccc(-n2cccn2)c([N+](=O)[O-])c1

IC50 [2]: 2.34 µM (active)
IC50 [3]: 3.53 µM (active)
IC50 [4]: > 10 µM (inconclusive)
SMILES: c1ccc(-c2[nH]nc3ccccc23)cc1

SMILES: CN(C)CC(CCC(CN(C)C)C(O)(c1ccccc1)c1ccccc1)C(O)(c1ccccc1)c1ccccc1 (centres undefined)
EC50 (BJ [5]): 4.97 µM (inconclusive)
EC50 (Transthyretin): > 167 µM (inactive)
EC50 (BJ [6]): 2.13 µM (active)
EC50 (BJ [7]): 5.82 µM (inconclusive)
EC50 [8]: 5.81 µM (active)
EC50 [9]: 1.68 µM (active)
EC50 (BJ [10]): 11.6 µM (active)

EC50 [1]: 46.5 µM (not active)
SMILES: Cn1c(=O)[nH]c(=O)c2c1nc(Br)n2CCCc1ccccc1

IC50 (Ephrin type-A receptor 4): > 100 µM (not active)
AC50 (Cytochrome P450 2C9): 28.2 µM (inconclusive)
SMILES: COc1ccc2sc3ccccc3c(=O)c2c1OC
